One compound from patent US7510825B2, “Kits and methods for detection of apoptotic cells” (NST NeuroSurvival Technologies Ltd, priority 2000, dated 2009) can be followed below.

The subject of assay [1] is Jurkat cells (T-cell leukemia, human). The assay can be described thus: Binding of DDC and PI to Jurkat cells treated with anti-Fas antibody, FACS. The assay is classed as cell-based. To be noted: anti-Fas antibody 0.1 μg/ml for 180 minutes. The method, then: a. Non Adherent Cells • 1. Inducing cells to undergo apoptosis. A negative control should be prepared by incubating cells in the absence of apoptosis induction agent. • 2. Washing the cells and adjusting the number of cells to 1×10^7/ml in PBS. • 3. Transferring 30 μl from the cell suspension to a suitable test tube for FACS analysis. • 4. Adding 260 μl of PBS and 5 μl of DDC to the tube and incubating for 15 minutes at room temperature (RT), protected from light. • 5. Adding 5 μl of Propidium Iodide (PI) and perform FACS analysis.
Analyzing DDC accumulation by flow cytometry using FACS apparatus that includes a UV laser. For DDC analysis: the UV detector excitation is at 356 nm and the emission is at 530 nm with a band pass of […]. […] The population should be separated into three groups: live cells will show a low level of fluorescence (background), apoptotic cells will show higher UV fluorescence and necrotic cells will show both red and higher UV fluorescence.
Jurkat cells (T-cell leukemia, human) were treated with anti-Fas antibody (0.1 μg/ml) for 180 minutes, Following incubation the cells were washed and stained with DDC (as detailed in DDC protocols, IIIA). […] Following incubation with anti-Fas antibody, most of the cells shifted to the lower right section (AII, EA) of higher fluorescence value, indicating increased staining with DDC. […]

The test system of assay [2] is renal tubular cells, ischemic kidney. The assay can be described thus: Renal cell injury (ischemia-reperfusion) detection by DDC. Format: in vivo, rats. The protocol:
A. Administration of DDC in-vivo: Injection of 200 μl of DDC intravenously. Following 1-2 hours, animal is sacrificed, and the desired organ is placed in a test tube or on a small plate, suitable for liquid nitrogen freezing. The plate is then covered with an aluminum foil, and transferred to liquid nitrogen. Following 5-30 minutes the specimen is being frozen to −80° C. and kept at −80° C. for at least 16 hr. B. Analysis of the Specimen: • a. Whole organ imaging Ex-vivo whole organ fluorescence imaging may be carried out on freshly excised specimen, that can be analyzed under a stereomicroscope (such as Leica MZ FL III, Leica Switzerland). DDC may be visualized using 360cx and >420cm nm filter set. Emitted fluorescence can be imaged using appropriate camera and software, such as a Leica DC 300F Distal camera and images can be processed and analyzed by Leica QWin Lite software. • b. Histological analysis, from the frozen organ or tissue, 4 μm cryosections are prepared on slides. Analysis of the tissue sections can be performed using a fluorescence microscope with a UV filter characterized by excitation at 360-370 nm (band pass) and emission at 420 nm (barrier filter) In case that staining of the examined tissue is desired, the following procedures can be applied: […]

In assay [3] the test system is Jurkat cells (T-cell leukemia). The assay can be described thus: Binding of DDC and PI to Jurkat cells treated with CD95, confocal microscopy. The assay is classed as cell-based, human. The conditions noted are these: CD95 for 180 minutes; confocal microscope. The protocol: For microscopic analysis the concentration of cells should be within 1-2×10^7/ml. […] If fixation is needed, it should be performed after DDC staining. • 1. Adjusting the cells to 1-2×10^7/ml in buffer. • 2. Transferring 96 μl from the cell suspension to an eppendorf and staining the cells by adding 4 μl from the DDC solution. Incubating for 10-40 minutes at RT protected from light. • 3. A double labeling could be conducted with PI, if desired. In such a case, 1 μl is added from the PI solution. • 4, Placing the cell suspension on a glass slide. Covering the cells with a glass coverslip. Alternatively, for analyzing adherent cells, cells may grow directly on coverslip. Staining the cells by incubation with DDC (4 μl of DDC/96 μl buffer reaction) or 10-40 minutes and PI (1 μl). […] Observing the cells under fluorescent or confocal microscope equipped with the appropriate UV filter (excitation at 360-370 nm, band pass, and emission at 420 nm, barrier filter. Using a Triple filter (Hoechst/FITC/Texas Red) allows concomitant observation of both DDC and PI. Quantitative Assay for DDC Accumulation using Fluorescene Spectroscopy
Jurkat cells (T-cell leukemia) were treated with CD95 for 180 minutes and incubated with DDC followed by incubation with Propidium Iodide (PI) as detailed in DDC protocols IIIC. The cells were analyzed under fluorescent confocal microscope using a UV filter. […]

Assay [4] deals with neuronal cells of the injured brain area. The assay can be described thus: Detection by DDC of apoptosis following traumatic brain injury (TBI). The assay is classed as in vivo, mice. The conditions noted are these: DDC 24 hr after traumatic injury, brain excised after 2 hr. The method, then: A. Administration of DDC in-vivo: Injection of 200 μl of DDC intravenously. Following 1-2 hours, animal is sacrificed, and the desired organ is placed in a test tube or on a small plate, suitable for liquid nitrogen freezing. The plate is then covered with an aluminum foil, and transferred to liquid nitrogen. Following 5-30 minutes the specimen is being frozen to −80° C. and kept at −80° C. for at least 16 hr. B. Analysis of the Specimen: • a. Whole organ imaging Ex-vivo whole organ fluorescence imaging may be carried out on freshly excised specimen, that can be analyzed under a stereomicroscope (such as Leica MZ FL III, Leica Switzerland). DDC may be visualized using 360cx and >420cm nm filter set. Emitted fluorescence can be imaged using appropriate camera and software, such as a Leica DC 300F Distal camera and images can be processed and analyzed by Leica QWin Lite software. • b. Histological analysis, from the frozen organ or tissue, 4 μm cryosections are prepared on slides. Analysis of the tissue sections can be performed using a fluorescence microscope with a UV filter characterized by excitation at 360-370 nm (band pass) and emission at 420 nm (barrier filter) In case that staining of the examined tissue is desired, the following procedures can be applied:
TBI model was performed on Balb/C, 8-9 weeks old, according to the protocol detailed in Yun Chen et al., 1996. […]

Consider `CN(C)c1cccc2c(S(=O)(=O)NC(CSSCC(NS(=O)(=O)c3cccc4c(N(C)C)cccc34)C(=O)O)C(=O)O)cccc12` (centres unmarked) [DDC], for which the “fluorescence (DDC accumulation) of treated versus control cells” value in assay [1] is given as “marked shift of fluorescence”. Further, in assay [2] (45 min renal artery clamping, DDC 20 h after reperfusion, ex-vivo whole organ fluorescence imaging), the “DDC uptake, ischemic kidney compared with control kidney” value was “Significant increase in DDC uptake”. For the same compound, the “DDC staining versus TUNEL staining” value in assay [2] (kidney sections after ischemia-reperfusion) is “Several cells were stained with DDC but were negative for TUNEL staining”. The “cellular staining pattern in apoptotic cells” value in assay [3] is “accumulated within the cytoplasm of early and late apoptotic cells”. The “correlation of DDC staining with H&E staining” value in assay [4] is “correlated with H&E staining”.
